In brackets after ≈: the same amount, converted by molar mass. Where two headings read alike, the source gives them in different places.
Tests used:
[1] = tested on: Brachyspira hyodysenteriae; assay: Sensitivity (MIC) for AIVLOSIN and chlortetracycline, alone and in combination; type: cell-based; details: for MIC: Brachyspira hyodysenteriae, alone; for MIC of each for combination of CTC + AIV: in combination CTC + AIV
Text: 4. Sensitivity of Bacteria for AIVLOSIN and Tetracyclines, Alone and in Combination.
Sensitivity is expressed as the lowest concentration of an antibiotic (in mcg/ml) that inhibits the growth of the test bacteria (MIC=Minimum Inhibitory Concentration).
Brachyspira Hyodysenteriae

Mycoplasma Synoviae = assay: Sensitivity (MIC) for AIVLOSIN and tetracyclines, alone and in combination; type: cell-based; details: for MIC: Mycoplasmopsis synoviae, alone; for MIC of each for combination CTC + AIV: in combination CTC + AIV; for MIC of each for combination OTC + AIV: in combination OTC + AIV
[2] = tested on: Brachyspira hyodysenteriae; assay: Swine dysentery animal disease model, prevention of clinical disease; type: in vivo, pigs
[3] = tested on: Brachyspira hyodysenteriae; assay: Swine dysentery, treatment of clinical outbreak; type: in vivo, pigs
[4] = tested on: Brachyspira hyodysenteriae; assay: In vitro MIC against Brachyspira hyodysenteriae strains (Table 2); type: cell-based
Clostridium perfringens = type: cell-based

Question: Which MIC ([1]; strain AF6) does the source give for `CN(C)[C@@H]1C(O)=C(C(N)=O)C(=O)[C@@]2(O)C(O)=C3C(=O)c4c(O)ccc(Cl)c4[C@@](C)(O)[C@H]3C[C@@H]12` [CTC, chlortetracycline] here?
Answer: 0.5 µg/mL

Question: What about the MIC ([1]; strain P265-9-97) of the same compound?
Answer: 16 µg/mL

Question: And the MIC ([1]; strain P268-9-97)?
Answer: 16 µg/mL

Question: What about the MIC ([1]; strain P578-6-97) of the same compound?
Answer: 16 µg/mL

Question: What about the “MIC of each for combination of CTC + AIV” value ([1]; strain AF6) of the same compound?
Answer: 0.125 µg/mL

Question: And the “MIC of each for combination of CTC + AIV” value ([1]; strain P265-9-97)?
Answer: 4.0 µg/mL

Question: And the “MIC of each for combination of CTC + AIV” value ([1]; strain P268-9-97)?
Answer: 8.0 µg/mL

Question: And the “MIC of each for combination of CTC + AIV” value ([1]; strain P578-6-97)?
Answer: 8.0 µg/mL

Question: What about the MIC (Mycoplasma Synoviae; strain 173) of the same compound?
Answer: 0.78 µg/mL

Question: And the MIC (Mycoplasma Synoviae; strain 185)?
Answer: 0.78 µg/mL

Question: What about the MIC (Mycoplasma Synoviae; strain 211) of the same compound?
Answer: 0.39 µg/mL

Question: What about the MIC (Mycoplasma Synoviae; strain 312) of the same compound?
Answer: 3.12 µg/mL

Question: What about the MIC (Mycoplasma Synoviae; strain wvu 1835) of the same compound?
Answer: 0.39 µg/mL

Question: What about the “MIC of each for combination CTC + AIV” value (Mycoplasma Synoviae; strain 173) of the same compound?
Answer: 0.1 µg/mL

Question: And the “MIC of each for combination CTC + AIV” value (Mycoplasma Synoviae; strain 185)?
Answer: 0.1 µg/mL

Question: What about the “MIC of each for combination CTC + AIV” value (Mycoplasma Synoviae; strain 211) of the same compound?
Answer: 0.1 µg/mL

Question: And the “MIC of each for combination CTC + AIV” value (Mycoplasma Synoviae; strain 312)?
Answer: 0.1 µg/mL

Question: What about the “MIC of each for combination CTC + AIV” value (Mycoplasma Synoviae; strain wvu 1835) of the same compound?
Answer: 0.1 µg/mL

Question: What does the source list for `CN(C)[C@@H]1C(O)=C(C(N)=O)C(=O)[C@@]2(O)C(O)=C3C(=O)c4c(O)cccc4[C@@](C)(O)[C@H]3[C@H](O)[C@@H]12` [OTC, oxytetracycline]?
Answer: MIC (Mycoplasma Synoviae; strain 173): 0.39 µg/mL; MIC (Mycoplasma Synoviae; strain 185): 0.2 µg/mL; MIC (Mycoplasma Synoviae; strain 211): 0.39 µg/mL; MIC (Mycoplasma Synoviae; strain 312): 0.78 µg/mL; MIC (Mycoplasma Synoviae; strain wvu 1835): 0.39 µg/mL; MIC of each for combination OTC + AIV (Mycoplasma Synoviae; strain 173): 0.1 µg/mL; MIC of each for combination OTC + AIV (Mycoplasma Synoviae; strain 185): 0.1 µg/mL; MIC of each for combination OTC + AIV (Mycoplasma Synoviae; strain 211): 0.1 µg/mL; MIC of each for combination OTC + AIV (Mycoplasma Synoviae; strain 312): 0.1 µg/mL; MIC of each for combination OTC + AIV (Mycoplasma Synoviae; strain wvu 1835): 0.1 µg/mL

Question: `C=C[C@]1(C)C[C@@H](OC(=O)CSCCN(CC)CC)[C@]2(C)[C@H](C)CC[C@]3(CCC(=O)[C@H]32)[C@@H](C)[C@@H]1O` [Tiamulin, tiamulin] was tested. Which “Period for which the drug needs to be provided to prevent an outbreak” value ([2]; artificially infected pigs) did it give?
Answer: whole period in which the pigs are at risk

Question: And the “Mean days to clear B.Hyo” value ([3]; 100 ppm 10 days)?
Answer: 5.8 days

Question: And the “Mean days to recovery” value ([3]; 100 ppm 10 days)?
Answer: 4.4 days

Question: What about the “Mean score at start” value ([3]; 100 ppm 10 days, clinical scoring 0 = normal, 6 = moribund, baseline) of the same compound?
Answer: 4.0

Question: What does the source list for `CC[C@H]1OC(=O)C[C@@H](O)[C@H](C)[C@@H](O[C@@H]2O[C@H](C)[C@@H](O[C@H]3C[C@@](C)(O)[C@@H](O)[C@H](C)O3)[C@H](N(C)C)[C@H]2O)[C@@H](CC=O)C[C@@H](C)C(=O)/C=C/C(C)=C/[C@@H]1CO[C@@H]1O[C@H](C)[C@@H](O)[C@@H](OC)[C@H]1OC` [Tylosin, tylosin]?
Answer: MIC ([4]; strain AF 6/80): 6.25 µg/mL (≈ 6.82 µM); MIC ([4]; strain PI8A): > 200 µg/mL; MIC ([4]; strain PO268-07.98): > 200 µg/mL; Period for which the drug needs to be provided to prevent an outbreak ([2]; pig, in vivo): ≥ 21 days; Mean days to clear B.Hyo ([3]; 100 ppm 21 days): 3.0 days; Mean days to recovery ([3]; 100 ppm 21 days): 2.1 days; Mean score at start ([3]; 100 ppm 21 days): 3.7

Question: For zinc bacitracin, which MIC (Clostridium perfringens; strain 378) is on record?
Answer: 3.125 µg/mL

Question: What about the MIC (Clostridium perfringens; strain 389) of the same compound?
Answer: 1.56 µg/mL

Question: And the MIC (Clostridium perfringens; strain 392)?
Answer: 1.56 µg/mL

Question: And the MIC (Clostridium perfringens; strain 395)?
Answer: 3.125 µg/mL

Question: What about the MIC (Clostridium perfringens; strain 410) of the same compound?
Answer: 3.125 µg/mL

Question: What about the MIC (Clostridium perfringens; strain 412) of the same compound?
Answer: 6.25 µg/mL

Question: What about the MIC (Clostridium perfringens; strain 413) of the same compound?
Answer: 6.25 µg/mL

From US20060247184A1, “Treatment and prophylaxis of diseases and infections pigs and poultry” (Eco Animal Health Ltd., priority 2000, published 2006)
